| melting point [°C] | Structure (SMILES) |
| --- | --- |
| 234 to 238 | CC(C)[C@H](N)C(=O)N1CC(F)(F)C(F)(F)C1 [Example 5, (S)-2-Amino-3-methyl-1-(3,3,4,4-tetrafluoro-pyrrolidin-1-yl)-butan-1-one] |
| 278 | N[C@H](C(=O)N1CC(F)(F)C(F)(F)C1)C1CCCCC1 [Example 3, (S)-2-Amino-2-cyclohexyl-1-(3,3,4,4-tetrafluoro-pyrrolidin-1-yl)-ethanone] |

Reference: patent US20040002609A1, “Synthesis of 3,3,4,4-tetrafluoropyrrolidine and novel dipeptidyl peptidase-IV inhibitor compounds” (Pfizer Inc., priority 2002, published 2004)
